Measured values as given in patent US20130017548A1, “SCREENING METHOD” (AJINOMOTO, INC., priority 2009, published 2013).

How the values were obtained:
[1] = tested on: IL-12 and IL-23 productions; settings: productions strongly induced by INF-γ; cited from earlier work
PIKfyve = target: T1, PIKfyve (Homo sapiens, UniProt Q9Y2I7); experiment: Assessment of lipid kinase inhibitory activity (competition with biotinyl acyl phosphate ATP derivative in Jurkat cell extract, LC-MS/MS); format: binding; settings: test compound 30 nM or 300 nM, FIG. 1
T1 construct: the supernatant resulting from centrifugation at 100,000×g for 60 minutes was used as a cell extract; endogenous in cells; host or cells: Jurkat (human T-lymphocyte line), cell extract
T1 sequence (Q9Y2I7 whole entry): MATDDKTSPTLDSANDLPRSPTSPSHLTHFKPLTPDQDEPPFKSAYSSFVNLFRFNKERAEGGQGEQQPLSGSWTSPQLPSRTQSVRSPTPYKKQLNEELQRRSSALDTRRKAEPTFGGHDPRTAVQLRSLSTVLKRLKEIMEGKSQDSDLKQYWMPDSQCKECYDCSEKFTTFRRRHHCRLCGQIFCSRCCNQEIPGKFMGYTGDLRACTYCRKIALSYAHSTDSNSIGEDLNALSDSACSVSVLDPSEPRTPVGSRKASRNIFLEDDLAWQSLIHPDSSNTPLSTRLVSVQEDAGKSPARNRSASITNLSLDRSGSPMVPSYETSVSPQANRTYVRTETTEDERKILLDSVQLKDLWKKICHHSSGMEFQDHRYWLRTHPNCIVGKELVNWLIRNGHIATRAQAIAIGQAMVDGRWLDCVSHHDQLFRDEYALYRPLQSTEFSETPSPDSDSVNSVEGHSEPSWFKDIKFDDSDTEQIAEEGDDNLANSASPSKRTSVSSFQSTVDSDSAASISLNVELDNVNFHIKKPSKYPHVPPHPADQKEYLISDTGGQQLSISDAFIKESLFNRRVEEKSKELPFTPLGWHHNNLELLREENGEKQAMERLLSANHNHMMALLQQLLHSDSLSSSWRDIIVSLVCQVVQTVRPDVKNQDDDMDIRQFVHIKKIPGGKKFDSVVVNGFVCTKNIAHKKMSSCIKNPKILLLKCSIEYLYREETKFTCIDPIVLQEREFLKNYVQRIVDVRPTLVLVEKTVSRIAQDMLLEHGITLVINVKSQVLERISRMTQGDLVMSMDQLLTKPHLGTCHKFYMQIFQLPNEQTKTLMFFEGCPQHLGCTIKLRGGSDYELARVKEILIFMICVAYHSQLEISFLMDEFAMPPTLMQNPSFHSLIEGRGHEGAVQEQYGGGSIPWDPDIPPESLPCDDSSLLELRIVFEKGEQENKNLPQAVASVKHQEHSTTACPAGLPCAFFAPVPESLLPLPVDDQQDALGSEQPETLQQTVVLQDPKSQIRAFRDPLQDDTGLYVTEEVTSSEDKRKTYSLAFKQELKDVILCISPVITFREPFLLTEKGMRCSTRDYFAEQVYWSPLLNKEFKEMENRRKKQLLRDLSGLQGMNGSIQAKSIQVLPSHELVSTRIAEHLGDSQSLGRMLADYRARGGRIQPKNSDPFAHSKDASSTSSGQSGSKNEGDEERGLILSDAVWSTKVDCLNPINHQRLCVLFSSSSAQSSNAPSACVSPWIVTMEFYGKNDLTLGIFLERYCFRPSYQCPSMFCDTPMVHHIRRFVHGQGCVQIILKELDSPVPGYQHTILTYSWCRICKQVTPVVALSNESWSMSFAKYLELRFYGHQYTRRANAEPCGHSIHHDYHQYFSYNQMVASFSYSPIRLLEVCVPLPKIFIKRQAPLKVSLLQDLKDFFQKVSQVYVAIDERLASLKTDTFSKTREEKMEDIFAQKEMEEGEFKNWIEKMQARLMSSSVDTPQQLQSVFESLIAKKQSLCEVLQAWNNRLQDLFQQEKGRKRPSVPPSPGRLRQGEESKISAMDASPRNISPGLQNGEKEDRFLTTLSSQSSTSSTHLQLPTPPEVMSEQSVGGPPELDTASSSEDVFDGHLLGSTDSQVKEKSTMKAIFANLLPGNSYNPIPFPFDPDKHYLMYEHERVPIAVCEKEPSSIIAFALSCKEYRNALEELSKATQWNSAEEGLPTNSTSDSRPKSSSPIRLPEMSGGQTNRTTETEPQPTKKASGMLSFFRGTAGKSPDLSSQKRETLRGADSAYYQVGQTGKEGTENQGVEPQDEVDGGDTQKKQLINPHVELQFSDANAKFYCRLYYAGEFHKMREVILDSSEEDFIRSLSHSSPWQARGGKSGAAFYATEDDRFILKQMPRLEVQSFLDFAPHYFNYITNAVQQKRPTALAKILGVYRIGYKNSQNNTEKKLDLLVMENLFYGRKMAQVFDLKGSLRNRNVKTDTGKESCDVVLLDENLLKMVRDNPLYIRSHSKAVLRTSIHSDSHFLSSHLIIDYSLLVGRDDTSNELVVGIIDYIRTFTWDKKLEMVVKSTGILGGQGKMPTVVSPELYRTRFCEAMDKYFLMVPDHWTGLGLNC
Protocol: Lipid kinase inhibitory activity was assessed according to the method described in Biochemistry 2007, 46, 350-358. Jurkat cell derived from human lymphocyte was suspended in a lysis buffer (20 mM Hepes, 150 mM NaCl, 0.1% TritonX-100, 20 mM MnCl2) by sonication, and the supernatant resulting from centrifugation at 100,000×g for 60 minutes was used as a cell extract. To the cell extract (5 mg/mL), a test compound (30 nM or 300 nM) or a solvent alone was added and incubated for 5 minutes. Then, an ATP derivative labeled with biotinyl acyl phosphate (20 μM) was added and incubated for 5 minutes, and the resultant was further subjected to digestion with trypsin. […] The biotin-labeled peptide was analyzed by LC-MS/MS for sequence identification and measurement of the elution amount of the lipid-kinase-derived peptide so as to assess competitive inhibitory activity of the test compound for the binding of the ATP derivative to various lipid kinases. […]
Using this assessment system, the inhibitory activity of the test compound for other lipid kinases was assessed (other lipid kinases may be commercially available or may be produced according to a method described in a known document) and the results thereof are shown in FIG. 1.

[2] = tested on: mouse enterocolitis model; experiment: Inflammation suppressive action in mouse IL-10-/- cell transfer enterocolitis model; format: in vivo; settings: FIG. 3
Protocol: A method for producing a mouse IL-10^−/− cell transfer enterocolitis model is described, for example, in Gastroenterology. 2009 February; 136(2):564-74.e2. Epub 2008 Oct. 7.
Measurement of an intestine weight as a drug efficacy indicator was carried out according to the following method. On the last day for autopsy, large intestine from the anus to immediately before the cecum was removed. The content of the intestine was washed with physiological saline, water was roughly removed and then the weight was measured.
Results from the assessment of the inflammation suppressive action of Compound 1 in mouse enterocolitis model using this assessment system are shown in FIG. 3.

[3] = tested on: IL-12b expression in mouse peritoneal macrophage; experiment: IL-12-production suppressive action by PIKfyve and Vac14 knockdown (siRNA, quantitative PCR); format: cell-based; settings: siRNA 1 μM, mouse interferon-γ and SAC stimulation 3.5 hours, normalized to GAPDH; FIG. 4
Protocol: Assessment of the effects of knockdown of PIKfyve and Vac14 expressed in mouse peritoneal macrophage using siRNA method was carried out as described below. Mouse peritoneal macrophage was isolated according to the method described in Laboratory Test Example 2, and subsequently suspended in Nucleofection solution attached to Mouse macrophage nucleofection kit (Lonza) to give 3.3×10^6 cells/mL. siRNA was added to the cell suspension to a final concentration of 1 μM and subjected to Nucleofection according to the attached protocol. The following siRNAs were used. […]
A FBS-free RPMI1640 medium was used for culture at 37° C. in the presence of 5% CO2 for 2 hours and then the medium was replaced by 0.5 ml of Dulbecco's MEM medium containing RPMI 1640 medium supplemented with 3% FBS for culture at 37° C. in the presence of 5% CO2 for 4 hours. Subsequently, 3.3 ng/mL mouse interferon-γ and 0.0017% (v/v) SAC were added and cultured for 3.5 hours and then the expression level of cytokine mRNA in the cell was measured.
Extraction and purification of total RNA from the mouse peritoneal macrophage was carried out using RNeasy midi kit (Qiagen 75144) according to the attached protocol. […] The resultant removed of the remaining […] was used as cDNA for quantitative PCR. […]

O=C1CCC(N2C(=O)c3ccccc3C2=O)C(=O)N1 (stereo not drawn) [thalidomide]
suppression of IL-12 and IL-23 productions [1]: cannot sufficiently suppress

Cc1cccc(C=NNc2cc(N3CCOCC3)n3nc(-c4ccncc4)cc3n2)c1 [Compound 1, N-(3-METHYL-BENZYLIDENE)-N′-(7-MORPHOLINE-4-YL-2-PYRIDINE-4-YL-PYRAZOLO[1,5-A]PYRIMIDINE-5-YL)-HYDRAZINE]
inhibitory activity against various lipid kinases (selectivity) (PIKfyve): inhibitory activity selective to PIKfyve | weight of the large intestine ([2]; 3, 10, 30 mg/kg, increase by IL-10-/- cell transfer): suppressed dependent on the dosage | suppressive action on large intestine weight ([2]; administration group of 30 mg/kg, once a day): Significant suppressive action

Vac14 siRNA: Silencer Select Pre-designed siRNA (Sense SEQ ID NO: 11, Antisense SEQ ID NO:12, Ambion, s107929) as Vac14 siRNA (sense GAUUUACUCCAACAACCAATT; antisense UUGGUUGUUGGAGUAAAUCCT; chemistry not given here)
IL-12b expression (fold-change over basal) [3]: significantly suppressed

C(=NNc1cc(N2CCOCC2)n2nc(-c3ccncc3)cc2n1)c1ccc2cc[nH]c2c1 [Compound 2, N-(1H-INDOLE-6-YLMETHYLENE)-N′-(7-MORPHOLINE-4-YL-2-PYRIDINE-4-YL-PYRAZOLO[1,5-A]PYRIMIDINE-5-YL)-HYDRAZINE]
inhibitory activity against various lipid kinases (selectivity) (PIKfyve): inhibitory activity selective to PIKfyve
